In patent US10590123B2, “Pesticidally active amide heterocyclic derivatives with sulphur containing substituents” (SYNGENTA PARTICIPATIONS AG, priority 2014, dated 2020):

Experiments:
Assay type in all cases: in vivo
[1] = system: Spodoptera littoralis (Egyptian Cotton Leaf Worm); assay: Example B1: Activity against Spodoptera littoralis, sprayed cotton leaf discs; conditions: foliar, 72 h, application rate 200 ppm, L1 larvae, 3 days after infestation, read-out: control in at least one of the three categories (mortality, anti-feedancy or growth inhibition)
Method in brief: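 Cotton leaf discs on agar were sprayed with aqueous dilutions of 10′000 ppm DMSO stocks, dried, and infested with five L1 larvae. Mortality, anti-feedant effect and growth inhibition were scored 3 days after infestation against untreated discs. Control means at least one of these exceeds the untreated sample.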

[2] = system: Plutella xylostella (Diamond Back Moth); assay: Example B3: Activity against Plutella xylostella, artificial diet; conditions: 120 h, application rate 200 ppm, L2 larvae, 5 days after infestation, read-out: effect in at least one of the two categories (mortality or growth inhibition)
Experimental: Example B3: Activity Against Plutella xylostella (Diamond Back Moth)
(§1) 24-well microtiter plates with artificial diet were treated with aqueous test solutions prepared from 10′000 ppm DMSO stock solutions by pipetting. After drying, the plates were infested with L2 larvae (10 to 15 per well). The samples were assessed for mortality and growth inhibition in comparison to untreated samples 5 days after infestation.

[3] = system: Diabrotica Balteata (Corn Root Worm); assay: Example B4: Activity against Diabrotica balteata, sprayed maize sprouts; conditions: 96 h, application rate 200 ppm, L2 larvae, 4 days after infestation, read-out: effect in at least one of the two categories (mortality or growth inhibition)
Experimental: Example B4: Activity Against Diabrotica Balteata (Corn Root Worm)
as §1, with “Maize sprouts, placed on an agar layer in 24-well” for “24-well”, “plates” for “plates with artificial diet”, “spraying.” for “pipetting.”, “(6” for “(10”, “10” for “15”, “4” for “5”

[4] = system: Euschistus heros (Neotropical Brown Stink Bug); assay: Example B7: Activity against Euschistus heros, sprayed soybean leaf; conditions: 120 h, application rate 200 ppm, N-2 nymphs, 5 days after infestation
Experimental: Example B7: Activity Against Euschistus heros (Neotropical Brown Stink Bug)
Soybean leaf on agar in 24-well microtiter plates were sprayed with aqueous test solutions prepared from 10′000 ppm DMSO stock solutions. After drying the leaf were infested with N-2 nymphs. The samples were assessed for mortality 5 days after infestation.

[5] = system: Myzus persicae (Green Peach Aphid); assay: Example B8: Activity against Myzus persicae, sprayed sunflower leaf discs; conditions: foliar, 144 h, application rate 200 ppm, aphid population of mixed ages, 6 days after infestation
Experimental: Example B8: Activity Against Myzus persicae (Green Peach Aphid)
(§2) Sunflower leaf discs were placed on agar in a 24-well microtiter plate and sprayed with aqueous test solutions prepared from 10′000 ppm DMSO stock solutions. After drying, the leaf discs were infested with an aphid population of mixed ages. The samples were assessed for mortality 6 days after infestation.

[6] = system: Thrips tabaci (Onion Thrips); assay: Example B11: Activity against Thrips tabaci, sprayed sunflower leaf discs; conditions: foliar, 144 h, application rate 200 ppm, thrips population of mixed ages, 6 days after infestation
Experimental: Example B11: Activity Against Thrips tabaci (Onion Thrips)
as §2, with “in” for “in a”, “plates” for “plate”, “drying” for “drying,”, “a thrips” for “an aphid”

[7] = system: Spodoptera littoralis (Egyptian Cotton Leaf Worm); assay: Example B2: Activity against Spodoptera littoralis, systemic via lettuce roots in agar; conditions: 144 h, application rate 12.5 ppm, 6 days after infestation, read-out: control in at least one of the three categories (mortality, anti-feedancy or growth inhibition)
Source text: Example B2: Activity Against Spodoptera littoralis (Egyptian Cotton Leaf Worm)
Test compounds were applied by pipette from 10′000 ppm DMSO stock solutions into 24-well plates and mixed with agar. Lettuce seeds were placed on the agar and the multi well plate was closed by another plate which contains also agar. After 7 days the roots have absorbed the compound and the lettuce has grown into the lid plate. The lettuce leafs were now cut off into the lid plate. Spodoptera eggs were pipetted through a plastic stencil on a humid gel blotting paper and the plate closed with it.
The samples were assessed for mortality, anti-feedant effect and growth inhibition in comparison to untreated samples 6 days after infestation.

[8] = system: Tetranychus urticae (Two-Spotted Spider Mite); assay: Example B12: Activity against Tetranychus urticae, sprayed bean leaf discs; conditions: foliar, 192 h, application rate 200 ppm, mixed population (mobile stages), 8 days after infestation
Experimental: Example B12: Activity Against Tetranychus urticae (Two-Spotted Spider Mite)
Bean leaf discs on agar in 24-well microtiter plates were sprayed with aqueous test solutions prepared from 10′000 ppm DMSO stock solutions. After drying the leaf discs were infested with a mite population of mixed ages. The samples were assessed for mortality on mixed population (mobile stages) 8 days after infestation.

[9] = system: Bemisia tabaci (Cotton White Fly); assay: Example B6: Activity against Bemisia tabaci, sprayed cotton leaf discs; conditions: foliar, 144 h, application rate 200 ppm, adult white flies, 6 days after incubation
Experimental: Example B6: Activity Against Bemisia tabaci (Cotton White Fly)
Cotton leaf discs were placed on agar in 24-well microtiter plates and sprayed with aqueous test solutions prepared from 10′000 ppm DMSO stock solutions. After drying the leaf discs were infested with adult white flies. The samples were checked for mortality 6 days after incubation.

[10] = system: Frankliniella occidentalis (Western Flower Thrips); assay: Example B5: Activity against Frankliniella occidentalis, sprayed sunflower leaf discs; conditions: foliar, 168 h, application rate 200 ppm, population of mixed ages, 7 days after infestation
Experimental: Example B5: Activity Against Frankliniella occidentalis (Western Flower Thrips)
as §2, with “in” for “in a”, “plates” for “plate”, “drying” for “drying,”, “a Frankliniella” for “an aphid”, “7” for “6”

[11] = system: Myzus persicae (Green Peach Aphid); assay: Example B9: Activity against Myzus persicae, systemic via pea seedling roots; conditions: 144 h, test rate 24 ppm, pea seedling roots in test solution, 6 days
Experimental: Example B9: Activity Against Myzus persicae (Green Peach Aphid)
Roots of pea seedlings infested with an aphid population of mixed ages were placed directly in the aqueous test solutions prepared from 10′000 DMSO stock solutions. The samples were assessed for mortality 6 days after placing seedlings in test solutions.

CCS(=O)(=O)c1cc(-c2cc(C(F)(F)F)ccn2)cnc1C(=O)N(C)c1nnc(C(F)(F)F)s1 [Compound P65]
≥ 80%: percent control (mortality, anti-feedant effect or growth inhibition) at 200 ppm [1] | percent effect (mortality or growth inhibition) at 200 ppm [2] | percent effect (mortality or growth inhibition) at 200 ppm [3] | mortality at 200 ppm [4] | mortality at 200 ppm [5] | mortality at 200 ppm [6]

CCS(=O)(=O)c1cc(-c2ccc(Cl)cc2)cnc1C(=O)N(C)c1nnc(C(F)(F)C(F)(F)F)s1 [Compound P14]
≥ 80%: percent control (mortality, anti-feedant effect or growth inhibition) at 200 ppm [1] | percent control (mortality, anti-feedant effect or growth inhibition) at 12.5 ppm [7] | percent effect (mortality or growth inhibition) at 200 ppm [2] | percent effect (mortality or growth inhibition) at 200 ppm [3] | mortality at 200 ppm [4] | mortality at 200 ppm [5] | mortality at 200 ppm [6]

CCS(=O)(=O)c1cc(-c2ccc(Cl)c(Cl)c2)cnc1C(=O)N(C)c1nnc(C(F)(F)F)s1 [Compound P36]
≥ 80%: percent control (mortality, anti-feedant effect or growth inhibition) at 200 ppm [1] | percent effect (mortality or growth inhibition) at 200 ppm [2] | percent effect (mortality or growth inhibition) at 200 ppm [3] | mortality at 200 ppm [4] | mortality at 200 ppm [8]

CCS(=O)(=O)c1cc(-c2cc(C#N)ccn2)cnc1C(=O)N(C)c1nnc(C(F)(F)F)s1 [Compound P61]
≥ 80%: percent control (mortality, anti-feedant effect or growth inhibition) at 200 ppm [1] | percent control (mortality, anti-feedant effect or growth inhibition) at 12.5 ppm [7] | percent effect (mortality or growth inhibition) at 200 ppm [2] | percent effect (mortality or growth inhibition) at 200 ppm [3] | mortality at 200 ppm [9] | mortality at 200 ppm [4] | mortality at 200 ppm [5] | mortality at 200 ppm [8]

CCS(=O)(=O)c1cc(-c2cc(F)ccc2F)cnc1C(=O)N(C)c1nnc(C(F)(F)F)s1 [Compound P33]
≥ 80%: percent control (mortality, anti-feedant effect or growth inhibition) at 200 ppm [1] | percent control (mortality, anti-feedant effect or growth inhibition) at 12.5 ppm [7] | percent effect (mortality or growth inhibition) at 200 ppm [2] | percent effect (mortality or growth inhibition) at 200 ppm [3] | mortality at 200 ppm [9] | mortality at 200 ppm [4] | mortality at 200 ppm [5] | mortality at 200 ppm [8]

CCS(=O)(=O)c1cc(-c2ccc(F)cc2)cnc1C(=O)N(C)c1nnc(C(F)(F)F)s1 [Compound P32]
≥ 80%: percent control (mortality, anti-feedant effect or growth inhibition) at 200 ppm [1] | percent control (mortality, anti-feedant effect or growth inhibition) at 12.5 ppm [7] | percent effect (mortality or growth inhibition) at 200 ppm [2] | percent effect (mortality or growth inhibition) at 200 ppm [3] | mortality at 200 ppm [10] | mortality at 200 ppm [9] | mortality at 200 ppm [4] | mortality at 200 ppm [5]

CCS(=O)(=O)c1cc(-c2cccc(Cl)n2)cnc1C(=O)N(C)c1nnc(C(F)(F)F)s1 [Compound P49]
≥ 80%: percent control (mortality, anti-feedant effect or growth inhibition) at 200 ppm [1] | percent effect (mortality or growth inhibition) at 200 ppm [2] | percent effect (mortality or growth inhibition) at 200 ppm [3] | mortality at 200 ppm [4] | mortality at 200 ppm [8]

CCS(=O)(=O)c1cc(C2(C#N)CC2)cnc1C(=O)N(C)c1nnc(C(F)(F)C(F)(F)F)s1 [Compound P20, 5-(1-cyanocyclopropyl)-3-ethylsulfonyl-N-methyl-N-[5-(1,1,2,2,2-pentafluoroethyl)-1,3,4-thiadiazol-2-yl]pyridine-2-carboxamide]
≥ 80%: percent control (mortality, anti-feedant effect or growth inhibition) at 200 ppm [1] | percent control (mortality, anti-feedant effect or growth inhibition) at 12.5 ppm [7] | percent effect (mortality or growth inhibition) at 200 ppm [2] | percent effect (mortality or growth inhibition) at 200 ppm [3] | mortality at 200 ppm [10] | mortality at 200 ppm [9] | mortality at 200 ppm [4] | mortality at 200 ppm [5] | mortality at 200 ppm [6]

CCS(=O)(=O)c1cc(-c2cncnc2)cnc1C(=O)N(C)c1nnc(C(F)(F)F)s1 [Compound P58]
≥ 80%: percent effect (mortality or growth inhibition) at 200 ppm [2] | mortality at 200 ppm [5] | mortality at 24 ppm [11]

CCS(=O)(=O)c1cc(-c2ccccc2)cnc1C(=O)N(C)c1nnc(C(F)(F)F)s1 [Compound P5, 3-ethylsulfonyl-N-methyl-5-phenyl-N-[5-(trifluoromethyl)-1,3,4-thiadiazol-2-yl]pyridine-2-carboxamide]
≥ 80%: percent control (mortality, anti-feedant effect or growth inhibition) at 200 ppm [1] | percent control (mortality, anti-feedant effect or growth inhibition) at 12.5 ppm [7] | percent effect (mortality or growth inhibition) at 200 ppm [2] | percent effect (mortality or growth inhibition) at 200 ppm [3] | mortality at 200 ppm [10] | mortality at 200 ppm [4] | mortality at 200 ppm [5] | mortality at 200 ppm [6]
